Literature values, collected in patent EP2367539B1, “NOVEL COMPOSITION FOR TREATMENT OF ESSENTIAL THROMBOCYTHEMIA” (AOP Orphan Pharmaceuticals AG, priority 2008, dated 2010).

Key:
PDE 3 [1] = system: PDE 3
PDE 3 [2] = settings: compared with anagrelide

Structure (SMILES) | platelet reduction and PDE 3 inhibitory activity (PDE 3 [1]) | potency as an inhibitor of PDE 3 (PDE 3 [2])
NC1=Nc2ccc(Cl)c(Cl)c2CN1 [RL 603, 2-amino-5,6-dichloro-3,4-dihydroquinazolone] | lacks these activities | –
O=C1NC2=Nc3ccc(Cl)c(Cl)c3CN2C1O (centres unmarked) [3-hydroxyanagrelide] | – | considerably more potent than anagrelide
